Assay results published in patent US8324264B1, “Inhibitors of bacterial biofilms and related methods” (Sequoia Sciences, Inc., priority 2011, dated 2012).
In brackets after ≈: the same amount, converted by molar mass.

Assays:
P. aeruginosa biofilms = experiment: Biofilm growth assay (spreading biofilm on semi-solid agar), P. aeruginosa; format: cell-based; conditions: biofilm growth assay, overnight 37° C., vs negative controls, Tables 1-5; for IC85: Pseudomonas aeruginosa, read-out: P. aeruginosa: concentration that reduces the area of the spreading biofilm by greater than or equal to 85%
Description: (§1) “Biofilm Growth Assay” refers to an assay performed on semi-solid agar surface where the bacteria collectively move out from an inoculation point. To those skilled in the art, the act of bacteria collectively moving out from an inoculation point on a semi-solid surface may be referred to as swarming or a spreading biofilm. (Anderson, et al Microbiology, 2003, 149, 37-46; Daniels, et al. FEMS Microbiology Reviews, 2004, 28, 261-289). The procedure to perform this assay is described in detail in the Examples. This type of surface motility by bacteria has been reported in the literature by those skilled in the art. […] These references are incorporated herein by reference in their entirety.
(§2) The biofilm growth assay was carried out to measure swarming or biofilm spreading on semi-solid agar media in round plates (for example, 100×15 mm), also referred to as Petri dishes. For E. coli, the plates contained LB medium with 0.6% agar and 0.5% glucose. P. aeruginosa plates were made with M8 agar supplemented with 0.2% glucose, 100 μM CaCl2, 1 mM MgSO4, and 0.5% Casamino acids. The agar plates of this assay consisted of 0.4% to 0.7% agar (Bacto or Noble agar), although other media may also be used as described in the literature and known to those skilled in the art. Test compounds at the desired concentration were added to the cooled, autoclaved media. Portions of the media were then poured into the plates (20 mL/plate), and the plates allowed to dry at room temperature for approximately 3 to 4 hours. Alternatively, however, plates may be dried in a laminar flow hood for approximately fifteen to twenty minutes. Overnight cultures were grown in a 37° C. shaker in LB (E. coli) or TSB (P. aeruginosa). Plates were inoculated by placing 5 μL of the appropriate overnight culture in the centers of the plates. The plates then were incubated overnight at 37° C. The area of the zone of spreading bacteria was then measured and replicates are averaged. Percent inhibition was calculated as 100×(area without compound−area with compound)/(area without compound). An active compound was considered that which reduces the area of the spreading biofilm compared to negative controls by greater than or equal to 85%. The values shown in Table 1 are the concentrations of compounds (μg/ml) tested in the biofilm growth assay that reduce the area of the spreading biofilm compared to negative controls by greater than or equal to 85% unless noted differently in Table 1. A > (“greater than” symbol) as used in Table 1 is well understood to those skilled in the art as an indication that the listed concentration was not effective at this concentration.
(§3) All of the compounds shown in Tables 2, 3, 4, and 5, below, were prepared semi-synthetically from oleanolic acid, except for Compounds 2 and 3. Compound 2 was prepared from ursolic acid. Compound 3 was prepared from hederagenin, but could also be prepared from an oleanolic acid analog with a hydroxyl at C23 or C24. These compounds were tested in the spreading biofilm assay according to the methods detailed in Example I, above. The values shown in Tables 2, 3, 4, and 5 are the concentrations of compounds tested in the biofilm growth assay that reduce the area of the spreading biofilm compared to negative controls by greater than or equal to 85%.

E. coli biofilms = experiment: Biofilm growth assay (spreading biofilm on semi-solid agar), E. coli; format: cell-based; conditions: biofilm growth assay, overnight 37° C., vs negative controls, Tables 1-5; for IC85: Escherichia coli, read-out: E. coli: concentration that reduces the area of the spreading biofilm by greater than or equal to 85%
Description: as §1, §2, §3

CC1(C)CC[C@]2(C(=O)O)CC[C@]3(C)C(=C(c4ccc(N5CCC(N)C5)nc4)CC4[C@@]5(C)Cc6c(n[nH]c6N)C(C)(C)C5CC[C@]43C)C2C1 (stereo partly drawn) [Example 58, (4a-8,6a8,6bR,13aR)-12-Amino-15-(6-(3-aminopyrrolidin-1-yl)pyridin-3-yl)-2,2,6a,6b,9,9,13a-heptamethyl-2,3,4,4a,5,6,6a,6b,7,8,8a,9,11,13,13a,13b,14,15b-octadecahydro-1H-chryseno[1,2-f]indazole-4-a-carboxylic acid]
P. aeruginosa: concentration that reduces the area of the spreading biofilm by greater than or equal to 85% (P. aeruginosa biofilms): 1 µg/mL | E. coli: concentration that reduces the area of the spreading biofilm by greater than or equal to 85% (E. coli biofilms): 2 µg/mL

CC1(C)CC[C@]2(C(=O)O)CC[C@]3(C)C(=C(c4cncnc4)CC4[C@@]5(C)Cc6c(n[nH]c6N)C(C)(C)[C@@H]5CC[C@]43C)[C@@H]2C1 (stereo partly drawn) [Example 30, (4aS,6aS,6bR,8aR,13aR,15bS)-12-Amino-2,2,6a,6b,9,9,13a-heptamethyl-15-(pyrimidin-5-yl)-2,3,4,4a,5,6,6a,6b,7,8,8a,9,11,13,13a,13b,14,15b-octadecahydro-1H-chryseno[1,2-f]indazole-4-a-carboxylic acid]
P. aeruginosa: concentration that reduces the area of the spreading biofilm by greater than or equal to 85% (P. aeruginosa biofilms): 2 µg/mL | E. coli: concentration that reduces the area of the spreading biofilm by greater than or equal to 85% (E. coli biofilms): 1 µg/mL

CC1(C)CC[C@]2(C(=O)O)CC[C@]3(C)C(=C(c4ccc(CN5CCOCC5)cc4)CC4[C@@]5(C)Cc6c(n[nH]c6N)C(C)(C)C5CC[C@]43C)C2C1 (stereo partly drawn) [Example 52, (4aS,6aS,6bR,13aR)-12-Amino-2,2,6a,6b,9,9,13a-heptamethyl-15-(4-(morpholinomethyl)phenyl)-2,3,4,4a,5,6,6a,6b,7,8,8a,9,11,13,13a,13b,14,15b-octadecahydro-1H-chryseno[1,2-f]indazole-4-a-carboxylic acid]
P. aeruginosa: concentration that reduces the area of the spreading biofilm by greater than or equal to 85% (P. aeruginosa biofilms): 1 µg/mL | E. coli: concentration that reduces the area of the spreading biofilm by greater than or equal to 85% (E. coli biofilms): 2 µg/mL

CN(C)CCc1c([C@]23CCC(C)(C)CC2C2=CCC4[C@@]5(C)Cc6c(n[nH]c6N)C(C)(C)C5CC[C@@]4(C)[C@]2(C)CC3)n[nH]c1O (stereo partly drawn) [Compound 85, 3-((4aS,6aS,6bR,13aR)-12-Amino-2,2,6a,6b,9,9,13a-heptamethyl-2,3,4,4a,5,6,6a,6b,7,8,8a,9,11,13,13a,13b,14,15b-octadecahydro-1H-chryseno[1,2-f]indazol-4-a-yl)-4-(2-(dimethylamino)ethyl)-1H-pyrazol-5-ol]
P. aeruginosa: concentration that reduces the area of the spreading biofilm by greater than or equal to 85% (P. aeruginosa biofilms): 0.5 µg/mL | E. coli: concentration that reduces the area of the spreading biofilm by greater than or equal to 85% (E. coli biofilms): 1 µg/mL

CC1(C)CC[C@]2(C(=O)O)CC[C@]3(C)C(=C(c4ccoc4CN4CCNCC4)CC4[C@@]5(C)Cc6c(n[nH]c6N)C(C)(C)[C@@H]5CC[C@]43C)[C@@H]2C1 (stereo partly drawn) [Example 35, (4aS,6aS,6bR,8aR,13aR,15bS)-12-Amino-2,2,6a,6b,9,9,13a-heptamethyl-15-(2-(piperazin-1-ylmethyl)furan-3-yl)-2,3,4,4a,5,6,6a,6b,7,8,8a,9,11,13,13a,13b,14,15b-octadecahydro-1H-chryseno[1,2-f]indazole-4-a-carboxylic acid]
P. aeruginosa: concentration that reduces the area of the spreading biofilm by greater than or equal to 85% (P. aeruginosa biofilms): >1 µg/mL | E. coli: concentration that reduces the area of the spreading biofilm by greater than or equal to 85% (E. coli biofilms): 1 µg/mL

C[C@H]1[C@H](C)CC[C@]2(CO)CC[C@]3(C)C(=CC[C@@H]4[C@@]5(C)CC[C@H](O)C(C)(C)[C@@H]5CC[C@]43C)[C@H]12 [Uvaol, reference compound]
IC85 (P. aeruginosa biofilms): > 128 µg/mL | IC85 (E. coli biofilms): > 8 µg/mL

CC1(C)CC[C@]2(C(=O)Sc3nnc(N)[nH]3)CC[C@]3(C)C(=CCC4[C@@]5(C)Cc6c(n[nH]c6N)C(C)(C)C5CC[C@]43C)C2C1 (stereo partly drawn) [Compound 70, (4aS,6aS,6bR,13aR)—S-5-Amino-4H-1,2,4-triazol-3-yl12-amino-2,2,6a,6b,9,9,13a-heptamethyl-2,3,4,4a,5,6,6a,6b,7,8,8a,9,11,13,13a,13b,14,15b-octadecahydro-1H-chryseno[1,2-f]indazole-4-a-carbothioate]
IC85 (P. aeruginosa biofilms): 0.5 µg/mL (≈ 0.845 µM) | IC85 (E. coli biofilms): 2 µg/mL (≈ 3.38 µM)

CN(C)c1ccc(C2=C3[C@@H]4CC(C)(C)CC[C@]4(C(=O)O)CC[C@@]3(C)[C@]3(C)CC[C@H]4C(C)(C)c5n[nH]c(N)c5C[C@]4(C)C3C2)cn1 (stereo partly drawn) [Example 44, (4aS,6aS,6bR,8aR,13aR,15bS)-12-Amino-15-(6-(dimethylamino)pyridin-3-yl)-2,2,6a,6b,9,9,13a-heptamethyl-2,3,4,4a,5,6,6a,6b,7,8,8a,9,11,13,13a,13b,14,15b-octadecahydro-1H-chryseno[1,2-f]indazole-4-a-carboxylic acid]
P. aeruginosa: concentration that reduces the area of the spreading biofilm by greater than or equal to 85% (P. aeruginosa biofilms): 0.5 µg/mL | E. coli: concentration that reduces the area of the spreading biofilm by greater than or equal to 85% (E. coli biofilms): 2 µg/mL

CC1(C)CC[C@]2(c3nnc(S)[nH]3)CC[C@]3(C)C(=CCC4[C@@]5(C)Cc6c(n[nH]c6N)C(C)(C)C5CC[C@]43C)C2C1 (stereo partly drawn) [Compound 75, 5-((4aS,6aS,6bR,13aR)-12-Amino-2,2,6a,6b,9,9,13a-heptamethyl-2,3,4,4a,5,6,6a,6b,7,8,8a,9,11,13,13a,13b,14,15b-octadecahydro-1H-chryseno[1,2-f]indazol-4-a-yl)-4H-1,2,4-triazole-3-thiol]
P. aeruginosa: concentration that reduces the area of the spreading biofilm by greater than or equal to 85% (P. aeruginosa biofilms): 0.5 µg/mL | E. coli: concentration that reduces the area of the spreading biofilm by greater than or equal to 85% (E. coli biofilms): 1 µg/mL

CC1(C)CC[C@]2(C(=O)O)CC[C@]3(C)C(=CCC4[C@@]5(C)Cc6cc[nH]c6C(C)(C)C5CC[C@]43C)C2C1 (stereo partly shown) [C]
IC85 (P. aeruginosa biofilms): 0.5 µg/mL (≈ 1.05 µM) | IC85 (E. coli biofilms): 0.5 µg/mL (≈ 1.05 µM)

CNCCc1c([C@]23CCC(C)(C)CC2C2=CCC4[C@@]5(C)Cc6c(n[nH]c6N)C(C)(C)C5CC[C@@]4(C)[C@]2(C)CC3)n[nH]c1O (stereo partly drawn) [Compound 86, 3-((4aS,6aS,6bR,13aR)-12-Amino-2,2,6a,6b,9,9,13a-heptamethyl-2,3,4,4a,5,6,6a,6b,7,8,8a,9,11,13,13a,13b,14,15b-octadecahydro-1H-chryseno[1,2-f]indazol-4-a-yl)-4-(2-(methylamino)ethyl)-1H-pyrazol-5-ol]
P. aeruginosa: concentration that reduces the area of the spreading biofilm by greater than or equal to 85% (P. aeruginosa biofilms): 0.5 µg/mL | E. coli: concentration that reduces the area of the spreading biofilm by greater than or equal to 85% (E. coli biofilms): 2 µg/mL

CC1(C)CC[C@]2(C(=O)O)CC[C@]3(C)C(=C(c4ccc(N5CCOCC5)cc4)CC4[C@@]5(C)Cc6c(n[nH]c6N)C(C)(C)C5CC[C@]43C)C2C1 (stereo partly drawn) [Example 51, (4aS,6aS,6bR,13aR)-12-Amino-2,2,6a,6b,9,9,13a-heptamethyl-15-(4-morpholinophenyl)-2,3,4,4a,5,6,6a,6b,7,8,8a,9,11,13,13a,13b,14,15b-octadecahydro-1H-chryseno[1,2-f]indazole-4-a-carboxylic acid]
P. aeruginosa: concentration that reduces the area of the spreading biofilm by greater than or equal to 85% (P. aeruginosa biofilms): 0.5 µg/mL | E. coli: concentration that reduces the area of the spreading biofilm by greater than or equal to 85% (E. coli biofilms): 2 µg/mL

CN1CCN(c2ccc(C3=C4C5CC(C)(C)CC[C@]5(C(=O)O)CC[C@@]4(C)[C@]4(C)CCC5C(C)(C)c6n[nH]c(N)c6C[C@]5(C)C4C3)cn2)CC1 (stereo partly drawn) [Example 56, (4aS,6aS,6bR,13aR)-12-Amino-2,2,6a,6b,9,9,13a-heptamethyl-15-(6-(4-methylpiperazin-1-yl)pyridin-3-yl)-2,3,4,4a,5,6,6a,6b,7,8,8a,9,11,13,13a,13b,14,15b-octadecahydro-1H-chryseno[1,2-f]indazole-4-a-carboxylic acid]
P. aeruginosa: concentration that reduces the area of the spreading biofilm by greater than or equal to 85% (P. aeruginosa biofilms): 1 µg/mL | E. coli: concentration that reduces the area of the spreading biofilm by greater than or equal to 85% (E. coli biofilms): 2 µg/mL

CC1(C)CC[C@]2(C(=O)O)CC[C@]3(C)C(=C(c4coc(CN5CCCC5)c4)CC4[C@@]5(C)Cc6c(n[nH]c6N)C(C)(C)C5CC[C@]43C)C2C1 (stereo partly drawn) [Example 38, (4aS,6aS,6bR,13aR)-12-Amino-2,2,6a,6b,9,9,13a-heptamethyl-15-(5-(pyrrolidin-1-ylmethyl)furan-3-yl)-2,3,4,4a,5,6,6a,6b,7,8,8a,9,11,13,13a,13b,14,15b-octadecahydro-1H-chryseno[1,2-f]indazole-4-a-carboxylic acid]
P. aeruginosa: concentration that reduces the area of the spreading biofilm by greater than or equal to 85% (P. aeruginosa biofilms): 1 µg/mL | E. coli: concentration that reduces the area of the spreading biofilm by greater than or equal to 85% (E. coli biofilms): 2 µg/mL
